Where two headings read alike, the source gives them in different places.
Legend:
[1] = test system: Key Grass and Sedge Weeds as well as Grass Crops; test: Post-emergent Test II herbicidal activity (Table 16); format: in vivo; settings: post-emergence, 336 h, 14 d; for pest or weed control at 35 g/ha: 35 g ai/ha; for pest or weed control at 70 g/ha: 70 g ai/ha; for pest or weed control at 140 g/ha: 140 g ai/ha
Method in brief: (§1)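 Greenhouse-grown seedlings at first/second true leaf receive a track spray at 187 L/ha, using a highest rate plus two-fold serial dilutions down to 1/16×. Watering is by subirrigation to avoid wash-off. Percent injury (0-100) is judged by eye at 14 d against untreated plants.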

[2] = test system: Key Broadleaf Weed and Crop Species; test: Post-emergent Test II herbicidal activity (Table 15); format: in vivo; settings: post-emergence, 336 h, 14 d; for pest or weed control at 35 g/ha: 35 g ai/ha; for pest or weed control at 70 g/ha: 70 g ai/ha; for pest or weed control at 140 g/ha: 140 g ai/ha
Method in brief: as §1

[3] = Cyperus esculentus, yellow nutsedge (Cyperus esculentus), read-out: Visual Growth Reduction (%) 14 Days After Application, CYPES
[4] = Echinochloa crus-galli, barnyardgrass (Echinochloa crus-galli), read-out: Visual Growth Reduction (%) 14 Days After Application, ECHCG
[5] = Oryza sativa, rice (Oryza sativa), read-out: Visual Growth Reduction (%) 14 Days After Application, ORYSA
[6] = Setaria faberi, giant foxtail (Setaria faberi), read-out: Visual Growth Reduction (%) 14 Days After Application, SETFA
[7] = Triticum aestivum, wheat, spring (Triticum aestivum), read-out: Visual Growth Reduction (%) 14 Days After Application, TRZAS
[8] = Zea mays, maize, corn (Zea mays), read-out: Visual Growth Reduction (%) 14 Days After Application, ZEAMX
[9] = Abutilon theophrasti, velvetleaf (Abutilon theophrasti), read-out: Visual Growth Reduction (%) 14 Days After Application, ABUTH
[10] = Amaranthus retroflexus, redroot pigweed (Amaranthus retroflexus), read-out: Visual Growth Reduction (%) 14 Days After Application, AMARE
[11] = Brassica napus, oilseed rape, canola (Brassica napus), read-out: Visual Growth Reduction (%) 14 Days After Application, BRSNN
[12] = Chenopodium album, lambsquarters (Chenopodium album), read-out: Visual Growth Reduction (%) 14 Days After Application, CHEAL
[13] = Euphorbia heterophylla, wild poinsettia (Euphorbia heterophylla), read-out: Visual Growth Reduction (%) 14 Days After Application, EPHHL
[14] = Helianthus annuus, sunflower (Helianthus annuus), read-out: Visual Growth Reduction (%) 14 Days After Application, HELAN

Compound	pest or weed control at 35 g/ha [1, 3] [%]	pest or weed control at 70 g/ha [1, 3] [%]	pest or weed control at 140 g/ha [1, 3] [%]	pest or weed control at 35 g/ha [1, 4] [%]	pest or weed control at 70 g/ha [1, 4] [%]	pest or weed control at 140 g/ha [1, 4] [%]	pest or weed control at 35 g/ha [1, 5] [%]	pest or weed control at 70 g/ha [1, 5] [%]	pest or weed control at 140 g/ha [1, 5] [%]	pest or weed control at 35 g/ha [1, 6] [%]	pest or weed control at 70 g/ha [1, 6] [%]	pest or weed control at 140 g/ha [1, 6] [%]	pest or weed control at 35 g/ha [1, 7] [%]	pest or weed control at 70 g/ha [1, 7] [%]	pest or weed control at 140 g/ha [1, 7] [%]	pest or weed control at 35 g/ha [1, 8] [%]	pest or weed control at 70 g/ha [1, 8] [%]	pest or weed control at 140 g/ha [1, 8] [%]	pest or weed control at 35 g/ha [2, 9] [%]	pest or weed control at 70 g/ha [2, 9] [%]	further results
COC(=O)c1nc(-c2ccc(Cl)c3[nH]ccc23)c(F)c(N)c1Cl [Compound 1.43]	0 to 29	0 to 29	0 to 29	0 to 29	0 to 29	0 to 29	0 to 29	0 to 29	0 to 29	0 to 29	0 to 29	0 to 29	0 to 29	0 to 29	0 to 29	0 to 29	0 to 29	0 to 29	0 to 29	0 to 29	pest or weed control at 140 g/ha [2, 9]: 60 to 74%; pest or weed control at 35 g/ha [2, 10]: 95 to 100%; pest or weed control at 70 g/ha [2, 10]: 95 to 100%; pest or weed control at 140 g/ha [2, 10]: 95 to 100%; pest or weed control at 35 g/ha [2, 11]: 0 to 29%; pest or weed control at 70 g/ha [2, 11]: 0 to 29%; pest or weed control at 140 g/ha [2, 11]: 0 to 29%; pest or weed control at 35 g/ha [2, 12]: 75 to 84%; pest or weed control at 70 g/ha [2, 12]: 85 to 94%; pest or weed control at 140 g/ha [2, 12]: 85 to 94%; pest or weed control at 35 g/ha [2, 13]: 0 to 29%; pest or weed control at 70 g/ha [2, 13]: 0 to 29%; pest or weed control at 140 g/ha [2, 13]: 30 to 44%; pest or weed control at 35 g/ha [2, 14]: 60 to 74%; pest or weed control at 70 g/ha [2, 14]: 75 to 84%; pest or weed control at 140 g/ha [2, 14]: 75 to 84%
COC(=O)c1nc(-c2ccc(Cl)c3cc[nH]c23)c(F)c(N)c1Cl [Compound 1.46]	0 to 29	0 to 29	0 to 29	0 to 29	0 to 29	0 to 29	0 to 29	0 to 29	0 to 29	0 to 29	0 to 29	0 to 29	0 to 29	0 to 29	0 to 29	0 to 29	0 to 29	0 to 29	0 to 29	0 to 29	pest or weed control at 140 g/ha [2, 9]: 0 to 29%; pest or weed control at 35 g/ha [2, 10]: 0 to 29%; pest or weed control at 70 g/ha [2, 10]: 0 to 29%; pest or weed control at 140 g/ha [2, 10]: 60 to 74%; pest or weed control at 35 g/ha [2, 11]: 0 to 29%; pest or weed control at 70 g/ha [2, 11]: 0 to 29%; pest or weed control at 140 g/ha [2, 11]: 0 to 29%; pest or weed control at 35 g/ha [2, 12]: 75 to 84%; pest or weed control at 70 g/ha [2, 12]: 85 to 94%; pest or weed control at 140 g/ha [2, 12]: 95 to 100%; pest or weed control at 35 g/ha [2, 13]: 0 to 29%; pest or weed control at 70 g/ha [2, 13]: 0 to 29%; pest or weed control at 140 g/ha [2, 13]: 0 to 29%; pest or weed control at 35 g/ha [2, 14]: 0 to 29%; pest or weed control at 70 g/ha [2, 14]: 30 to 44%; pest or weed control at 140 g/ha [2, 14]: 45 to 59%
COC(=O)c1nc(-c2ccc3occc3c2)nc(N)c1OC [Compound 2.06]	0 to 29	0 to 29	0 to 29	0 to 29	45 to 59	95 to 100	0 to 29	0 to 29	0 to 29	0 to 29	0 to 29	0 to 29	0 to 29	0 to 29	0 to 29	0 to 29	0 to 29	0 to 29	0 to 29	0 to 29	pest or weed control at 140 g/ha [2, 9]: 75 to 84%; pest or weed control at 35 g/ha [2, 10]: 75 to 84%; pest or weed control at 70 g/ha [2, 10]: 95 to 100%; pest or weed control at 140 g/ha [2, 10]: 95 to 100%; pest or weed control at 35 g/ha [2, 11]: 30 to 44%; pest or weed control at 70 g/ha [2, 11]: 60 to 74%; pest or weed control at 140 g/ha [2, 11]: 85 to 94%; pest or weed control at 35 g/ha [2, 12]: 60 to 74%; pest or weed control at 70 g/ha [2, 12]: 75 to 84%; pest or weed control at 140 g/ha [2, 12]: 85 to 94%; pest or weed control at 35 g/ha [2, 13]: 30 to 44%; pest or weed control at 70 g/ha [2, 13]: 75 to 84%; pest or weed control at 140 g/ha [2, 13]: 95 to 100%; pest or weed control at 35 g/ha [2, 14]: 60 to 74%; pest or weed control at 70 g/ha [2, 14]: 75 to 84%; pest or weed control at 140 g/ha [2, 14]: 85 to 94%

From patent publication US20170050957A1, “4-AMINO-6-(HETEROCYCLIC)PICOLINATES AND 6-AMINO-2-(HETEROCYCLIC)PYRIMIDINE-4-CARBOXYLATES AND THEIR USE AS HERBICIDES” (Dow AgroSciences LLC, priority 2013, published 2017)
